Source: US7034042B2, “N-(4-aryloxypiperidin-1-ylalkyl) cinnamic amides as CCR33 receptor antagonists” (Novartis AG, priority 2000, dated 2006)

biological target: T1, human CCR-3 (Homo sapiens, UniProt P51677); assay: CCR-3 Binding Assay (inhibition of [125I]-human eotaxin binding, SPA); conditions: binding of [125I]-human eotaxin to membranes of RBL-2H3 cells stably expressing CCR3; 4 hours at room temperature
T1 construct: expressed in transfected cells; membranes
T1 sequence (P51677 1-355): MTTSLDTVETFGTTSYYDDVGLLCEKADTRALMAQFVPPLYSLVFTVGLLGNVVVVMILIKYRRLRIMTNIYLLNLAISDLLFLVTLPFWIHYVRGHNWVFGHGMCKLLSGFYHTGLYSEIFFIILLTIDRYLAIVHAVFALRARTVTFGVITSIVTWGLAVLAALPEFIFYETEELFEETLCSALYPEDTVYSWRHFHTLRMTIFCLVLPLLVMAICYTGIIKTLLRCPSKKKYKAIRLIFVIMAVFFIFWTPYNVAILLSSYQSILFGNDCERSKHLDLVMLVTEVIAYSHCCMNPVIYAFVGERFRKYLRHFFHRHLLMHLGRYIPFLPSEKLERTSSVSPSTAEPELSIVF
Experimental: In this assay the effect of agents of the invention on the binding of human eotaxin to human CCR-3 is determined. Recombinant cells expressing human CCR-3 are captured by wheatgerm agglutinin (WGA) polyvinyltoluidene (PVT) SPA beads (available from Amersham), through a specific interaction between the WGA and carbohydrate residues of glycoproteins on the surface of the cells. [^125I]-human eotaxin (available from Amersham) binds specifically to CCR-3 receptors bringing the [^125I]-human eotaxin in close proximity to the SPA beads. Emitted â-particles from the [^125I]-human eotaxin excite, by its proximity, the fluorophore in the beads and produce light.
Preparation of Assay Buffer: 5.96 g HEPES and 7.0 g sodium chloride are dissolved in distilled water and 1M aqueous CaCl2 (1 mL) and 1M aqueous MgCl2 (5 mL) are added. The pH is adjusted to 7.6 with NaOH and the solution made to a final volume of 1 L using distilled water. 5 g bovine serum albumin and 0.1 g sodium azide are then dissolved in the solution and the resulting buffer stored at 4° C. A Complete™ protease inhibitor cocktail tablet (available from Boehringer) is added per 50 mL of the buffer on the day of use.
Preparation of Homogenisation Buffer: Tris-base (2.42 g) is dissolved in distilled water, the pH of the solution is adjusted to 7.6 with hydrochloric acid and the solution is diluted with distilled water to a final volume of 1 L. The resulting buffer is stored at 4° C. A Complete™ protease inhibitor cocktail tablet is added per 50 mL of the buffer on the day of use.
Preparation of membranes: Confluent rat basophil leukemia (RBL-2H3) cells stably expressing CCR3 are removed from tissue culture flasks using enzyme-free cell dissociation buffer and resuspended in phosphate-buffered saline. […]
The assay is performed in a final volume of 250 μL per well of an Optiplate (ex Canberra Packard). […] The resulting scintillations are counted using a Canberra Packard TopCount, each well being counted for 1 minute. […]

Row | SMILES | IC50
1 | COc1ccc(C#N)cc1/C=C/C(=O)NC(CO)CN1CCC(Oc2ccc(F)cc2)CC1 (stereo not drawn) [Example 1, (E)-3-(5-Cyano-2-methoxy-phenyl)-N-{2-[4-(4-fluoro-phenoxy)-piperidin-1-yl]-1-hydroxymethyl-ethyl}-acrylamide] | 0.016 µM
2 | COc1ccc(C#N)cc1/C=C/C(=O)N[C@H](CC(=O)N(C)CCO)CN1CCC(Oc2ccc(F)cc2)CC1 [Example 14, (E)-3-(5-Cyano-2-methoxy-phenyl)-N-((R)-2-[4-(4-fluoro-phenoxy)-piperidin-1-yl]-1-{[(2-hydroxy-ethyl)-methyl-carbamoyl]-methyl}-ethyl)-acrylamide] | 0.011 µM
3 | COc1ccc(C#N)cc1/C=C/C(=O)N[C@H](CNC(C)=O)CN1CCC(Oc2ccc(F)cc2)CC1 [Example 16, (E)-N-{(R)-1-(Acetylamino-methyl)-2-[4-(4-fluoro-phenoxy)-piperidin-1-yl]-ethyl}-3-(5-cyano-2-methoxy-phenyl)-acrylamide] | 0.0028 µM
